Reference: patent US5998368A, “Derivatives of structurally modified VIP and pharmaceutical compositions containing them” (Yeda Research and Development Co. Ltd., priority 1991, dated 1999)
Read-outs that look alike come from different tables or passages of the source.

Key:
[1] = Stability of the test material; assay type: physicochemical
[2] = Skin penetration and body distribution of 125I-labelled conjugates after topical application to the penis; assay type: in vivo
Excerpt: These experiments were divided into two groups. In the first group of experiments we performed a time course of the distribution of radioactively labelled stearoyl-Nle^17 -VIP (in Sefsol 318™), applied transdermally to the penis of the animals, in various organs of the body. In the second group of experiments we compared the penetration of radioactively labelled VIP, Nle^17 -VIP St-VIP and St-Nle^17 -VIP with Sefsol 318™ following transdermal application. Two to four animals were used for each data point. The derivatives were labelled with 1251 using the chloramine-T based method^(14).
In the first group of experiments, stearoyl-Nle^17 -VIP was radioactively labelled with I^125. Each animal received 2.2 million CPM, in 6μl of the radioactive material+ 26μl ointment (ointment No. 4 in Example 5). Two animals were used for each time point in two independent experiments. To avoid oral absorbance, the animal mouth was sealed. At indicated times following topical application, animals were sacrificed and duplicate tissue samples were removed, weighed and counted in a gamma counter. Tissues measured were: lungs (LU), heart (HE), kidneys (KI), liver (Li) and intestine (IN).
In the second group of experiments compositions of Sefsol 318™ and VIP, St-VIP, Nle^17 -VIP and St-Nle^17 -VIP were prepared. The experiments were performed as in FIG. 7 with the only difference that each animal received a 2.4 million CPM, 2-4 animals were utilized for each variable. Animals were sacrificed 30 minutes after the application of the drug.

[3] = system: penile reflexes in castrated rats; assay: Penile reflexes (E2, cups) in castrated rats after transdermal application; assay type: in vivo, rat
Experimental: (a) The ointment composition was: 31.2 μl 10% Sefsol 318™ (glyceryl monocaprylate), and either 0.24 mg stearoyl-VIP in 31.2 μl DMSO (1-2μl per animal) (SEFS in FIG. 1) or 0.24 rig stearoyl-Nle^17 -VIP in the above (SEFS* in FIG. 1).
(b) For other analogs described hereinafter 10 μl of solution were used per animal containing 7 μg of active material in a vehicle containing 5% Sefsol and 20% isopropanol.
In a further set of experiments the effects of stearoyl-VIP compounded with Sefsol 318™ were compared with those of stearoyl-Nle^17 -VIP compounded with Sefsol 318™.
In a second type of biological experiments the effects of compositions containing other modified VIP conjugates compounded with Sefsol 318™ were tested.
Rats with reduced sexual potential due to castration were employed. Male rats (250-300 g, about three month old) were kept in a 12-hours light, 12-hours dark cycle. Experiments were always conducted within the dark period, 2-6 hours after the onset of darkness. Male rats were castrated and given partial testosterone replacement (4 μg/100 g body weight) in the form of daily injection for 14-21 consecutive days (the duration of the experiment). Experiments were conducted one week following surgery.
A procedure was utilized that employed the technique that measures sexual reflexes in the penis, which enables direct evaluation of penile erection following transdermal administration of the drug. Successful reproduction depends, in large part, upon the precise execution of temporally organized, functionally related behavioural units. In these experiments, we concentrated on the final stages of the erection process (reddening of the penis accompanied by its distension and extension leading to complete erection) and monitored the latency time to the first E2 and first cup(^14).
For testing, each animal was restrained in a supine position with the anterior portion of its body enclosed in a loosely fitting cylinder (7 cm diam). After a belt was secured around the torso, the glans penis was extruded from its sheath and gently held perpendicular to the abdomen by a thin wooden applicator positioned at the posterior of the penis. The legs of the male were held by the observer and this position was maintained throughout the test period. The duration of the session was 45 minutes. The latencies and numbers of E2 and cups were recorded and plotted.
An E2 is defined as a complete erection which can be followed by cup in which the penile tip is turned into a cup-like structure, whereby the glands flare out such that the penis is wider in its distal portion than its base. This final stage requires E2 and is probably a pre-requisite for ejaculation (13). Using, all the parameters one can obtain a reliable measure of the sexual activity of the tested rat.
Six to ten animals were tested in this paradigm for each variable. Control animals received ointment compositions without the modified VIP conjugate.

[4] = system: Sprague Dawley rats; assay: Repeated dose toxicity, topical, 13 weeks
Experimental: The repeated dose toxicity of stearoyl-Nle^17 -VIP administered topically was investigated in 80 SPF (Specified pathogen free) rats divided into 4 groups of ten male and ten female Sprague Dawley (S.D.) strain rats purchased from Harlan, Olac, England.
Group 1: 7 μg stearoyl-Nle^17 -VIP+vehicle (1× dose)
Group 2: 700 μg stearoyl-Nle^17 -VIP+vehicle (100× dose)
Group 4: Vehicle only (5% Sefsol+20% isopropanol)

[5] = system: Sprague Dawley rats; assay: Single dose toxicity, intravenous (tail vein); assay type: in vivo, rat; settings: for acute intravenous median lethal dose (LD50): with vehicle
Experimental: The single dose toxicity of stearoyl-Nle^17 -VIP injected intravenously, into the tail vein, was investigated in 4 groups of six male and six female rates [Sprague Dawley (S.D.) strain, purchased from Levinstein, Yokneam, Israel).
Test Groups constitution:
2. Vehicle (Sefsol 5% + isopropanol 50%)
3. Stcaroyl-Nle^17 -VIP 7 μg/rat + vehicle
4. Stearyol-Nle^17 -VIP 7,000 μg/rat + vehicle

[6] = system: penile erection in normal male; settings: cited from earlier work
[7] = Table 3, topical, 7 μg in 5% Sefsol and 20% isopropanol, castrated rats, 45 min session
[8] = daily topical 7, 700, 3500 μg, 13 weeks
[9] = daily topical 7, 700, 3500 μg, 13 weeks, male and female rats
[10] = Group 3, 7 μg/rat + vehicle i.v.

stearoyl-norleucine^17 -VIP [St-Nle^17 -VIP]
stability compared with stearoyl-VIP [1]: more stable
Stability ([1]; powder): for a year
Stability ([1]; refrigerated in a solubilized form): for at least six weeks
disappearance from organs, time after administration ([2]; 125I-labelled, topical in Sefsol 318, FIG. 7): 2.5 h
peak deliveries to organs, time after administration ([2]; 125I-labelled, topical in Sefsol 318, lungs, heart, kidneys, liver, intestine, FIG. 7): 15 to 60 min
concentrations in kidney, liver and intestines ([2]; 30 minutes after topical application in Sefsol 318, compared with VIP, Nle17-VIP, St-VIP, FIG. 8): highest concentrations
No. of E2 [3, 7]: 9
No. of cups [3, 7]: 27
biologically active dose ([3]; pharmacological experimentation, rat): 7 μg per rat
latency to first E2 ([3]; topical, in Sefsol 318 ointment (SEFS*), castrated rats, 45 min session, FIG. 1): about 1 minute
latency to first cup ([3]; topical, in Sefsol 318 ointment (SEFS*), castrated rats, 45 min session, FIG. 2): 10 min
number of E2 during the test period ([3]; topical, in Sefsol 318 ointment, castrated rats, 45 min session, FIG. 3): 34
number of cups ([3]; topical, in Sefsol 318 ointment, castrated rats, 45 min session, FIG. 4): 20
efficiency according to all the four parameters tested ([3]; transdermal, Sefsol 318 composition, compared with stearoyl-VIP in Sefsol 318): more efficient
adverse effects [4, 8]: No dose related adverse effects
clinical pathology (hematology, clinical chemistry) [4, 8]: No dose related or sex related biologically meaningful treatment effects
body weight gain and food consumption [4, 9]: No significant differences
mortality [4, 9]: No mortality associated with drug application
organ weight analysis ([4]; daily topical 7, 700, 3500 μg, 13 weeks, versus control group): No treatment related differences
overall conclusion, serious adverse effects ([4]; daily topical application for 13 weeks, any of the dosages tested): did not cause any serious adverse effects
mortality [5, 10]: No mortality
necrotic reaction at the site of injection (tail skin), share of animals [5, 10]: 58%
necrotic reaction at the site of injection (tail skin), share of animals ([5]; Group 4, 7,000 μg/rat + vehicle i.v.): all the animals
mortality ([5]; Group 4, 7,000 μg/rat + vehicle i.v., within 3 hours after administration): Seven rats (3 male and 4 female out of 12) died
acute intravenous median lethal dose (LD50) ([5]; combined males and females): < 7,000 μg
acute intravenous median lethal dose (LD50) ([5]; male rats): 7,000 μg/male rat
other side effects ([5]; surviving rats of all groups): No other side effects
body weight gain ([5]; two weeks after i.v. dose, ANOVA versus vehicle control group): increased weight gain

Vasoactive intestinal peptide (HSDAVFTDNYTRLRKQMAVKKYLNSILN) [VIP]
penile response ([6]; as little as 1 μg into the corpus cavernosum, coupled with sexual stimulation): facilitated full erection
penile response ([6]; up to 20 μg into the corpus cavernosum, without sexual stimulus): caused only slight swelling of the penis but not erection
